According to US20230058189A1, “QUINOLIN-4-ONE AND 4(1H)-CINNOLINONE COMPOUNDS AND METHODS OF USING SAME” (Frequency Therapeutics, Inc., priority 2019, published 2023):

What follows are compounds tested on Lgr5+ cells (cochlear stem cells) (assay: Lgr5+ assay: expansion of Lgr5-positive cochlear cells in 3D culture). Settings: 10 days culture with EGF, bFGF, IGF1; approximate values.
Format: cell-based, mouse
Excerpt: “Stem Cell Proliferation Assay” as used herein is an assay to determine the capacity for agent(s) to induce the creation of stem cells from a starting cell population. In an exemplary Stem Cell Proliferation Assay, the number of cells for an initial cell population is harvested from a Lgr5-GFP mouse such as a B6.129P2-Lgr5tm1(cre/ERT2)Cle/J mouse (also known as Lgr5-EGFP-IRES-creERT2 or Lgr5-GFP mouse, Jackson Lab Stock No: 008875) between the age of 3 to 7 days, by isolating the organ of Corti sensory epithelium and dissociating the epithelium into single cells. Approximately 5000 cells are entrapped in 40 μl of culture substrate (for example, Matrigel (Corning, Growth Factor Reduced)) and placed at the center of wells in a 24-well plate with 500 μl of an appropriate culture media, growth factors and agent being tested. Appropriate culture media and growth factors include Advanced DMEM/F12 with media supplements (1×N2, 1×B27, 2 mM Glutamax, 10 mM HEPES, 1 mM N-acetylcysteine, and 100 U/ml penicillin/100 μg/ml streptomycin) and growth factors (50 ng/ml EGF, 50 ng/ml bFGF, and 50 ng/ml IGF-1) as well as the agent(s) being assessed are added into each well. Cells are cultured for 10 days in a standard cell culture incubator at 37° C. and 5% CO2, with media change every 2 days. The number of Lgr5^+ cells is quantified by counting the number of cells identified as Lgr5+ in an in vitro Lgr5 activity assay (i.e., an assay mearing in vitro Lgr5 activity). The fraction of cells that are Lgr5^+ is quantified by dividing the number of cells identified as Lgr5^+ in a cell population by the total number of cells present in the cell population. The average Lgr5^+ activity of a population is quantified by measuring the average mRNA expression level of Lgr5 of the population normalized using suitable and unregulated references or housekeeping genes (e.g., Hprt). The number of hair cells in a population may be measured by staining with hair cell marker (e.g., MyosinVIIa), or using an endogenous reporter of hair cell genes (e.g., Pou4f3-GFP, Atoh1-nGFP) and analyzing using flow cytometry. The fraction of cells that are hair cells is quantified by dividing the number of cells identified as hair cells in a cell population by the total number of cells present in the cell population. Lgr5 activity can be measured by qPCR.
The compounds of the present disclosure were used in Lgr5-EGFP-IRES-Cre-ER mice (Barker et al., 2007) to analyze the effects of small molecules on cochlear stem cell expansion.
Isolation of stem cells from the inner ear: All animal studies were conducted under an approved institutional protocol according to National Institutes of Health guidelines. For experiments with neonatal mice (postnatal days 1-3), the cochleae were dissected in Hank's Balanced Salt Solution (HBSS) and the organs of Corti were separated from the stria vascularis and the modiolus. The organs of Corti were then treated with Cell Recovery Solution (Corning) for 1 hour to separate cochlear epithelium from the underlying mesenchyme. Epithelia were then collected and treated with TrypLE (Life Technologies) for 15-20 minutes at 37° C. Single cells obtained by mechanical trituration were filtered (40 μm) and suspended in Matrigel® (Corning) for 3D culture.
Cells were cultured in a 1:1 mixture of DMEM and F12, supplemented with Glutamax (GIBCO), N2, B27 (Invitrogen), EGF (50 ng/ml; Chemicon), bFGF (50 ng/ml; Chemicon), IGF1 (50 ng/ml; Chemicon) and the composition provided herein. Medium was changed every other day.
Lgr5-positive cells were quantified after 10 days (D10) in culture in multiple conditions. Cell colonies were dissociated into single cells using TrypLE (Gibco). The cells were then stained with propidium iodide (P1) and were analyzed using a flow cytometer for Lgr5-GFP expression. The number of GFP-positive cells and the percentage of GFP-positive cells were quantified. […]

| Compound | % of Lgr5+ Positive Cells |
| --- | --- |
| CCn1cc(C(=O)O)c(=O)c2cc(F)c(NC3CCCCC3)cc21 [Compound I-1] | <5% |
| CCC(CC)n1cc(C(=O)O)c(=O)c2c(C)c(F)c(NC3CCCCC3)cc21 [Compound I-3] | <5% |
| CCn1cc(C(=O)O)c(=O)c2c(N)c(F)c(NC3CCCCC3)cc21 [Compound I-7] | 22% |
| CCn1cc(C(=O)O)c(=O)c2c(N)c(F)c(NC3CCOCC3)cc21 [Compound I-8] | 21% |
| CCn1cc(C(=O)O)c(=O)c2c(N)c(F)c(NC3CCCC3)cc21 [Compound I-9] | 13% |
| CCn1cc(C(=O)O)c(=O)c2c(N)c(F)c(NC3CCc4ccccc43)cc21 (centres unmarked) [Compound I-10] | 1% |
| CCn1cc(C(=O)O)c(=O)c2c(N)c(F)c(NC3Cc4ccccc4C3)cc21 [Compound I-11] | 17% |
| CCn1cc(C(=O)O)c(=O)c2c(N)c(F)c(NC3CCC3)cc21 [Compound I-12] | 25% |
| CCn1cc(C(=O)O)c(=O)c2c(N)c(F)c(NC3CC3)cc21 [Compound I-15] | 30% |
| CCn1cc(C(=O)O)c(=O)c2c(N)c(F)c(Nc3ccccc3)cc21 [Compound I-16] | 22% |
| CCn1cc(C(=O)O)c(=O)c2c(N)c(F)c(NCc3ccccc3)cc21 [Compound I-17] | 22% |
| CCn1cc(C(=O)O)c(=O)c2c(N)c(F)c(NCCc3ccccc3)cc21 [Compound I-18] | 31% |
| CCn1cc(C(=O)O)c(=O)c2c(N)c(F)c(NCCCc3ccccc3)cc21 [Compound I-19] | 17% |
| CCn1cc(C(=O)O)c(=O)c2c(N)c(F)c(N[C@@H]3C[C@H]3c3ccccc3)cc21 [Compound I-21] | 21% |
| CCn1cc(C(=O)O)c(=O)c2c(N)c(F)c(N[C@H]3C[C@@H]3c3ccccc3)cc21 [Compound I-22] | 16% |
| CCn1cc(C(=O)O)c(=O)c2c(N)cc(NCCCc3ccccc3)cc21 [Compound I-57] | 1% |
| CCn1cc(C(=O)O)c(=O)c2c(N)c(F)c(N[C@H]3C[C@H](c4ccccc4)C3)cc21 [Compound I-60] | 30% |
| CCn1cc(C(=O)O)c(=O)c2c(N)c(F)c(N[C@H]3C[C@@H](c4ccccc4)C3)cc21 [Compound I-61] | 30% |

Same assay, conditions: effective concentration for Lgr5+ expansion, 10 days culture with EGF, bFGF, IGF1; approximate values

| Compound | Potency (Lgr5+ activity) |
| --- | --- |
| CCn1cc(C(=O)O)c(=O)c2cc(F)c(NC3CCCCC3)cc21 [Compound I-1] | >10000 nM |
| CCC(CC)n1cc(C(=O)O)c(=O)c2c(C)c(F)c(NC3CCCCC3)cc21 [Compound I-3] | >10000 nM |
| CCn1cc(C(=O)O)c(=O)c2c(N)c(F)c(NC3CCCCC3)cc21 [Compound I-7] | 370 nM |
| CCn1cc(C(=O)O)c(=O)c2c(N)c(F)c(NC3CCOCC3)cc21 [Compound I-8] | 3300 nM |
| CCn1cc(C(=O)O)c(=O)c2c(N)c(F)c(NC3CCCC3)cc21 [Compound I-9] | 1100 nM |
| CCn1cc(C(=O)O)c(=O)c2c(N)c(F)c(NC3CCc4ccccc43)cc21 (centres unmarked) [Compound I-10] | >10000 nM |
| CCn1cc(C(=O)O)c(=O)c2c(N)c(F)c(NC3Cc4ccccc4C3)cc21 [Compound I-11] | 3300 nM |
| CCn1cc(C(=O)O)c(=O)c2c(N)c(F)c(NC3CCC3)cc21 [Compound I-12] | 1100 nM |
| CCn1cc(C(=O)O)c(=O)c2c(N)c(F)c(NC3CC3)cc21 [Compound I-15] | 3300 nM |
| CCn1cc(C(=O)O)c(=O)c2c(N)c(F)c(Nc3ccccc3)cc21 [Compound I-16] | 1100 nM |
| CCn1cc(C(=O)O)c(=O)c2c(N)c(F)c(NCc3ccccc3)cc21 [Compound I-17] | 3300 nM |
| CCn1cc(C(=O)O)c(=O)c2c(N)c(F)c(NCCc3ccccc3)cc21 [Compound I-18] | 1100 nM |
| CCn1cc(C(=O)O)c(=O)c2c(N)c(F)c(NCCCc3ccccc3)cc21 [Compound I-19] | 370 nM |
| CCn1cc(C(=O)O)c(=O)c2c(N)c(F)c(N[C@@H]3C[C@H]3c3ccccc3)cc21 [Compound I-21] | 3300 nM |
| CCn1cc(C(=O)O)c(=O)c2c(N)c(F)c(N[C@H]3C[C@@H]3c3ccccc3)cc21 [Compound I-22] | 1100 nM |
| CCn1cc(C(=O)O)c(=O)c2c(N)cc(NCCCc3ccccc3)cc21 [Compound I-57] | 30000 nM |
| CCn1cc(C(=O)O)c(=O)c2c(N)c(F)c(N[C@H]3C[C@H](c4ccccc4)C3)cc21 [Compound I-60] | 370 nM |
| CCn1cc(C(=O)O)c(=O)c2c(N)c(F)c(N[C@H]3C[C@@H](c4ccccc4)C3)cc21 [Compound I-61] | 1100 nM |

Same assay, conditions: in a background of growth factors; compared to CHIR-99021 and its combinations (figures)

| Compound | Lgr5 GFP+ progenitor cell proliferation (Lgr5 positive cell count) | enrichment of Lgr5 GFP+ cochlear progenitor cells (percent of Lgr5 positive cells) |
| --- | --- | --- |
| CCn1cc(C(=O)O)c(=O)c2c(N)c(F)c(NC3CCCCC3)cc21 [Compound I-7] | generate Lgr5 GFP+ progenitor cell proliferation | generates enrichment of Lgr5 GFP+ cochlear progenitor cells |
